# Where no end group is shown, it is not given here. [ ]: non-standard residue; d: D form. Cit = NC(=O)NCCC[C@H](N)C(=O)O
# B1: IL-1: murine IL-1 used to stimulate MEFs (protein, UniProt P10749 118-269, looked up)
# Interleukin-1 beta: VPIRQLHYRLRDEQQKSLVLSDPYELKALHLNGQNINQQVIFSMSFVQGEPSNDKIPVALGLKGKNLYLSCVMKDGTPTLQLESVDPKQYPKKKMEKRFVFNKIEVKSKVEFESAEFPNWYISTSQAEHKPVFLGNNSGQDIIDFTMESVSS
# What was measured:
# RA sera = experiment: IgG response to cyclic citrullinated FBG peptides in RA and control sera; assay type: binding, human; conditions: 20 RA and 20 control sera
# Description: (A) Peptides with sequences corresponding to the amino acid sequence of FBG were designed, with the addition of cysteine residues at the amino and carboxy termini and the exchange of arginine for citrulline residues at positions identified by LC-MS/MS. (B) IgG response to citrullinated FBG peptides and arginine containing control peptides in patients with rheumatoid arthritis (RA; n=20) and healthy controls (n=20). The 95th percentile of the control sera was used to determine positivity (dashed line). Mann-Whitney U test was used to calculate p values for differences between groups (n.s.=no significant difference, *=p<0.05 and **=p<0.01, ***=p<0.001, […]).
# With reference to FIG. 31, the antibody response in 20 RA and 20 control sera to 6 cyclic FBG peptides, encompassing citrulline residues was evaluated.
# [1] = test system: RA synovial membrane cultures; experiment: Spontaneous cytokine synthesis in RA synovial membrane cultures incubated with FBG peptides; assay type: cell-based, human; conditions: for inhibition of cytokine synthesis at the highest concentrations / TNF and IL8 synthesis: RA synovial membrane cultures; for inhibition of cytokine synthesis at the highest concentrations: dose dependent, 25, 100 or 250 μM peptide, 24 h; for TNF and IL8 synthesis: spontaneous cytokine synthesis
# Protocol: RA membrane cells (representing a mixed population of all synovial cell types) were isolated from synovial membranes obtained from patients undergoing joint replacement surgery (Brennan (1989)). Synovial membrane tissue was digested in RPMI 1640 (GIBCO) containing 5% fetal calf serum (FCS) (GIBCO), 5 mg/ml collagenase type IV (Sigma) and 0 15 mg/ml DNAse type I (Sigma) and incubated at 37° C. for 2 h.
# Immediately after isolation, RA membrane cells were cultured at 1×10^5 cells/well in RPMI 1640 containing 10% (v/v) FBS and 100 U/ml penicillin/streptomycin in 96-well tissue culture plates. Cells were incubated for 24 h at 37° C. with no addition, buffer control (PBS, 1% BSA, 0.01% NaN3), or with 25 μm, 100 μM or 250 μM of each FBG spanning peptide.
# (§1) Supernatants were examined for the presence of the cytokines TNF-α, IL-6, and IL-8 by enzyme-linked immunosorbent assay (ELISA) according to the manufacturer's instructions (R&D systems). Absorbance was read on a spectrophotometric ELISA plate reader (Labsystems Multiscan Biochromic, Vantaa, Finland) and analyzed using the Ascent software program (Thermo Labsystems, Altrincham, UK).
# human macrophages = experiment: FBG or LPS induced cytokine synthesis in human macrophages pre-incubated with FBG peptides; assay type: cell-based; conditions: pre-incubation with 20 μM peptide, 24 h; for FBG mediated cytokine synthesis: then 1 μM whole FBG
# Protocol: (§2) After incubation the tissue was pipetted through a nylon mesh into a sterile beaker. The cells were then washed three times in complete medium (RPMI 1640 supplemented with 10% FCS). RA synovial fibroblasts were isolated from the mixed population of RA membrane cells by selection in DMEM (Bio-Whittaker) supplemented with 10% FBS, […], 100 U/ml penicillin, and streptomycin. Human monocytes were isolated from peripheral blood (London Blood Bank) and macrophages were derived from monocytes after differentiation for 4 days with 100 ng/ml of M-CSF.
# (§3) Macrophages were cultured at 1×10^5 cells/well in RPMI 1640 containing 5% (v/v) FBS and 100 U/ml penicillin/streptomycin in 96-well tissue culture plates for 24 h before stimulation. Cells were incubated for 24 h at 37° C. with no addition, 1.0 μM FBG, 1 ng/ml LPS or 1 or 20 μM FBG peptide. Where stated, cells were pre-incubated with 20 μM FBG peptides for 15 min.
# as §1
# [2] = test system: primary human macrophages; experiment: Stimulation of primary human macrophages with each FBG peptide; assay type: cell-based; conditions: 1 or 20 μM FBG peptide, 24 h
# Protocol: as §2, §3, §1
# TLR4 = experiment: Cytokine synthesis in embryonic fibroblasts or macrophages from TLR4 deficient mice; assay type: cell-based
# Protocol: (§4) MEFs express high levels of mRNA of all 9 murine TLRs and are specifically and highly responsive to TLR ligand activation. […] MEFs were isolated from d13 embryos harvested from age-matched, pregnant female wild type, TLR2, TLR4 and null mice (as described in Todaro (1963)). Fibroblasts were cultured at 2×10^4 cells/well in DMEM containing 10% (v/v) FBS and 100 U/ml penicillin/streptomycin in 96-well tissue culture plates for 24 hours before stimulation.
# (§5) BMDMs were derived by aspirating the femurs of age matched female wild type, TLR2 and TLR4 null mice as described in Butler (1999)) and culturing the cells for 7 days in DMEM, 20% (v/v) FBS, 10 ml/L (v/v) antibiotic-antimycotic solution PSA, 50 μM β-Mercaptoethanol and 10 ng/ml M-CSF. Macrophages were then cultured at 1×10^5 cells/well in DMEM, 20% (v/v) FBS, 10 ml/L (v/v) antibiotic-antimycotic solution PSA, 50 μM β-Mercaptoethanol in 96-well tissue culture plates for 24 hours before stimulation.
# (§6) Cells were incubated for 24 hours at 37° C. with the indicated doses of tenascin-C and recombinant tenascin-C fragments (1.0 μM-1.0 nM). Cells were also stimulated where indicated with LPS (1 ng/ml for human macrophages, 10 ng/ml for human fibroblasts, RA membrane cells and HEKs, 100 ng/ml for MEFS and BMDMs and 10 ng/ml for HEKS), PAM3 (10 ng/ml for human macrophages, human fibroblasts, and HEKs, 100 ng/ml for MEFs and BMDMs), murine IL-1 (5 ng/ml for MEFS) and murine TNF-α (100 ng/ml for MEFS). Unless specifically stated otherwise rough LPS was used for in vitro studies.
# as §1, with “were subsequently” for “were”, “instructions.” for “instructions (R&D systems).”
# MyD88 = experiment: Cytokine synthesis in embryonic fibroblasts from MyD88 deficient mice; assay type: cell-based; conditions: for cytokine synthesis: MEFs from MyD88 deficient mice, 24 h; for responsiveness after re-transfection of wild type MyD88: MyD88 deficient MEFs, data not shown
# Protocol: as §4, §6
# as §1, with “were subsequently” for “were”, “instructions.” for “instructions (R&D systems).”
# TLR2 = experiment: Cytokine synthesis in embryonic fibroblasts or macrophages from TLR2 deficient mice; assay type: cell-based
# Protocol: as §4, §5, §6
# as §1, with “were subsequently” for “were”, “instructions.” for “instructions (R&D systems).”
# [3] = test system: synovial fibroblasts from RA patients (RAF); experiment: Cell adhesion to coated FBG, RA synovial fibroblasts; assay type: cell-based, human; conditions: coated wells, 45 minutes, crystal violet
# Protocol: (§7) (A) The sequence identified to bind integrin ≢vβ3 is shown in white (Yokoyama et al., 2000). Within this sequence two Arginines (shown in black) were identified to be citrullinated. (B) Wells of a 96 well plate were coated with different concentrations of FBG, citrullinated FBG (cFBG), FBG incubated in buffer without Calcium (FBG —Ca^2+), or FBG incubated without PAD (FBG -PAD). As a positive control wells were coated with Fibronectin (FN) (1 ug/ml), and coating with BSA (10 mg/ml) served as negative control. Plates were incubated with human dermal fibroblasts (HDF) or synovial fibroblasts from RA patients (RAF) for 45 minutes and adhesion was measured by determining absorbance of attached cells after staining with crystal violet (0.1%). Data are shown as the mean of at least four independent experiments+s.e.m., *=p<0.05, **=p<0.01.
# [4] = test system: primary human macrophages; experiment: TNF synthesis in primary human macrophages stimulated with native or citrullinated FBG; assay type: cell-based; conditions: 0.1-1.0 μM, 24 h
# Protocol: Equal volumes of protein and 2× citrullination buffer (200 mM Tris HCl, pH 7.4, 20 mM CaCl2, 10 mM DTT) were mixed. 8.75 U rabbit skeletal PAD (product number P1584 from Sigma) per mg substrate protein was added and incubated for 3 hours at 37° C. or 2 hours at 50° C. Citrullination was confirmed by size shift visualized by coomassie blue staining of SDS PAGE or by AMC detection.
# Primary human macrophages were isolated as described above and cultured at 1×10^5 cells/well in RPMI 1640 containing 5% (v/v) FBS and 100 U/ml penicillin/streptomycin in 96-well tissue culture plates for 24 h before stimulation. Cells were incubated for 24 h at 37° C. with no addition (UN), different concentrations (uM) of native FBG (nFBG) or cit FBG (cFBG) or citrullination buffer alone (CIT) or cit buffer plus PAD enzyme (CIT+PAD).
# as §1, with “TNF-α” for “TNF-α, IL-6, and IL-8”
# [5] = test system: human dermal fibroblasts (HDF); experiment: Cell adhesion to coated FBG, human dermal fibroblasts; assay type: cell-based; conditions: coated wells, 45 minutes, crystal violet
# Protocol: as §7
molecule,measurement,setting,value
"CEMKL-Cit-PSNF-Cit-NLEGRRKRC (CEMKL[Cit]PSNF[Cit]NLEGRRKRC; not fully specified (bridges); printed as CEMKL-Cit-PSNF-Cit-NLEGRRKRC; also: cyclic, bridge not given here) [CIT209/214]",antibody response in RA sera and control sera,RA sera,detected in RA sera but not control sera
"CEMKLRPSNFRNLEG-Cit-Cit-KRC (CEMKLRPSNFRNLEG[Cit][Cit]KRC; not fully specified (bridges); printed as CEMKLRPSNFRNLEG-Cit-Cit-KRC; also: cyclic, bridge not given here) [CIT219/220]",antibody response in RA sera and control sera,RA sera,detected in RA sera but not control sera
"CVFLRRKNG-Cit-ENFYQNWC (CVFLRRKNG[Cit]ENFYQNWC; not fully specified (bridges); printed as CVFLRRKNG-Cit-ENFYQNWC; also: cyclic, bridge not given here) [CIT55]",antibody response in RA sera and control sera,RA sera,detected in RA sera but not control sera
ELRVDLRDHGETAFAVYDKFSVGDAKTRYK [Peptide 5],TNF synthesis,"[1]; RA membrane cells, 24 h with peptide",no effect
same,maximal inhibition of IL8 synthesis,"[1]; RA membrane cells, dose dependent",81%
same,FBG mediated cytokine synthesis,human macrophages,specifically blocked
same,cytokine synthesis,[2],induced cytokine synthesis in a dose dependent manner
KTRYKLKVEGYSGTAGDSMAYHNGRSFST [Peptide 6],cytokine synthesis,[2],induced cytokine synthesis in a dose dependent manner
Pam3Cys-Ser-Lys4 [reference compound],cytokine synthesis,TLR4,did respond
same,cytokine synthesis,MyD88,abolished
same,responsiveness after re-transfection of wild type MyD88,MyD88,restored the responsiveness
same,cytokine synthesis,TLR2,unresponsive
TIGLLYPFPKDCSQAMLNGDTTSGLYTIYL [Peptide 1],cytokine synthesis,[2],induced cytokine synthesis in a dose dependent manner
TNF-α [reference compound],cytokine synthesis,MyD88,unaffected
WIVFLRRKNGRENFYQNWKAYAAGFGDRRE [Peptide 3],inhibition of cytokine synthesis at the highest concentrations,[1],95%
same,TNF and IL8 synthesis,[1]; 24 h with peptide,inhibited
WYRNCHRVNLMGRYGDNNHSQGVNWFHWKG [Peptide 8],inhibition of cytokine synthesis at the highest concentrations,[1],56%
same,TNF and IL8 synthesis,[1]; 24 h with peptide,inhibited
same,cytokine synthesis in response to LPS,human macrophages; then 1 ng/ml LPS,blocked
same,FBG mediated cytokine synthesis,human macrophages,blocked
cFBG: FBG domain of tenascin-C citrullinated in vitro with PAD,adhesion of synovial fibroblasts from RA joints (RAF),[3],reduces adhesion
same,cytokine (TNFα) synthesis compared with native FBG,[4],better at stimulating cytokine (e.g. TNFα) synthesis
same,adhesion of human dermal fibroblasts (HDF),[5],reduces adhesion
B1,cytokine synthesis,TLR4,did respond
same,cytokine synthesis,MyD88,abolished
same,responsiveness after re-transfection of wild type MyD88,MyD88,restored the responsiveness
same,cytokine synthesis,TLR2,responsive

# Reference: patent publication US20170009228A1, “BIOLOGICAL MATERIALS AND THERAPEUTIC USES THEREOF” (IMPERIAL INNOVATIONS LIMITED, priority 2014, published 2017)
